Experimental data reported in patent publication US5317015A, “Azacyclic bisphosphonates as anticholesterolemic agents” (Rhone-Poulenc Rorer Pharmaceuticals Inc., priority 1992, dated 1994).

Test system: 1,4-condensation between isopentenyl diphosphate and geranyl diphosphate
Assay: not given
Conditions: J. Am. Chem. Soc., 1987, 109, 5544; cited from earlier work

| Compound | inhibition of the 1,4-condensation (in words) |
| --- | --- |
| C=C(C)CCCP(=O)(O)CP(=O)(O)O | competitive inhibitors |

Biological target: T1, squalene synthetase (Rattus norvegicus, UniProt Q02769)
T1 construct: The brown outer microsomal layer is carefully removed with a spatula and placed in a beaker on ice; from tissue; host or cells: liver microsomes of male Sprague-Dawley rats (105,000 g pellet, washed, not purified)
T1 sequence (Q02769 1-416): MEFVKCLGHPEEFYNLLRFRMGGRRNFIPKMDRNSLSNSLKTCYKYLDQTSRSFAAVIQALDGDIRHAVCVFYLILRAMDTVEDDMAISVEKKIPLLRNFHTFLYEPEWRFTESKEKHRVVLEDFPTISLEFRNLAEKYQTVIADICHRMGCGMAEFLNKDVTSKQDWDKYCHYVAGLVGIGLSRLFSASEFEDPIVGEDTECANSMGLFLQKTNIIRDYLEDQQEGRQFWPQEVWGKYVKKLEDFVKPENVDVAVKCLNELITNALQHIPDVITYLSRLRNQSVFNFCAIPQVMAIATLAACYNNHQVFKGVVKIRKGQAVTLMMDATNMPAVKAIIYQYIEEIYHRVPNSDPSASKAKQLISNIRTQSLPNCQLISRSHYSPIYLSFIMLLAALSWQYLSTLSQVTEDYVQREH
Assay: Squalene Synthetase Inhibition Assay (SQ SYN)
Assay type: biochemical, rat (Sprague-Dawley)
Conditions: rat liver microsomes, 10 μM 3H-FPP, 0.5 mM β-NADPH, pH 7.5, 10 min preincubation and 10 min incubation, 37° C.
From the text: These tests involve such factors as the effect of the compounds of Formula I to inhibit squalene synthesis.
Squalene Synthetase Inhibition Assay
The squalene synthetase assay used is a modification of the procedures described by Popjak (1969) and Poulter et al. (1989):
Popjak, G. Enzymes of sterol biosynthesis in liver and intermediates of sterol biosynthesis. Meth. Enzymol. 15: 393-454, 1969.
Poulter, C. D., Capson, T. L., Thompson, M. D. and Bard R. S. Squalene synthetase. Inhibition by ammonium analogues of carbocationic intermediates in the conversion of presqualene diphosphate to squalene. J. Am. Chem. Soc. 111: 3734-3739, 1989.
I. Animal Source and Tissue Preparation
Four male Sprague-Dawley rats weighing 100-120 gms are fed a low cholesterol rodent diet (#5012) obtained from Purina Mills, Inc. in Richmond, Ind.; and housed under reverse-light. Water is given ad lib. Rats are lightly anesthetized with ether and then decapitated. Livers are removed and enzymes are separated by the method described below.
All Chemicals are "A.C.S." in purity or better unless noted;
AquaSol®-2 scintillation fluid (NEF-952) (Du Pont/NEN Research Products, Boston, Mass.);
Anhydrous MgCl2 (M-8266), β-NADPH tetrasodium salt, reduced form (N-1630), Bovine serum albumin (A-6003), Cholesterol (C-8503);
Squalene (S-3626), (Sigma Chemical Co., St. Louis, Mo.);
Bio-Rad protein assay dye concentrate (Bio-Rad Laboratories, Richmond, Calif.);
Denatured ethanol, DMSO, HCl (1N), KOH, methanol, NaOH (0.1N, 1N), petroleum ether (M-280 grade), potassium phosphate dibasic, 2-propanol (Fisher Scientific, Pittsburgh, Pa.);
Zero grade nitrogen gas mixture (certified analysis) (Woodland Oxygen & Supply Co., Philadelphia, Pa.).
[1-^3 H(N)]-FPP, triammonium salt (NET-1042), (Du Pont/NEN, Boston, Mass.);
Non-radiolabeled FPP is prepared in-house. The solid FPP is aliquoted and stored at -80° C. FPP is dissolved in 70% ethanol/30% 0.25M NH4 HCO3 at the concentration of 10 mM and the solution is aliquoted (200 μl each) and stored at -80° C.
III. Preparation of Assay Substances
Test solutions are prepared fresh in 100% DMSO or dH2 O. Subsequent dilutions are made in the same solvent. Compounds are tested initially at 1 or 10 μM (final concentrations).
Potassium phosphate (50 mM, 8.71 g/l) pH 7.5 stock buffer is prepared and stored at 4° C. until use. Anhydrous MgCl2 is added to the phosphate buffer on the day of assay for a final concentration of 10 mM (95 mg/100 ml). The buffer is flushed with N2 before use.
Non-radiolabeled FPP is diluted to 50 μM (100 μl 10 mM cold FPP+19.9 ml phosphate buffer). Then, 14 μl (20×10^6 dpm) of ^3 H-FPP (0.5 mCi/ml, 0.011 mg/ml) is added. 200 μl of this mixture is added per assay tube for a final reaction concentration of 10 μM FPP (~200,000 dpm/assay tube).
37.5 mg of β-NADPH is added to 9 ml assay buffer for a 5 mM concentration of β-NADPH. The mixture is vortexed and 100 μl of this solution is added to each tube for a final assay concentration of 0.5 mM β-NADPH.
75 gm of KOH is dissolved in 500 ml of denatured ethanol for a 15% solution and stored at 0° C. until use. 1 ml of this solution is added per tube to terminate the reaction.
IV. Experimental Procedure
Immediately following decapitation, livers are removed one at a time from four rats. The livers are combined and weighed in a tared beaker. Assay buffer is added equal to three times the liver weight. The liver is first homogenized with a blender for thirty seconds, and then by a motor driven teflon pestle at a speed of 2.5. During homogenization, the liver is kept on ice. When the liver is fully homogenized, the homogenate is centrifuged at 10,000 g for 30 min at 4° C. in 50 ml capacity centrifuge tubes. The mitochondrial pellet is discarded and the supernatant is filtered through a layer of gauze moistened with a little buffer. This supernatant is recentrifuged at 105,000 g for one hour at 0° C. in an ultracentrifuge in 25 ml capacity ultracentrifuge tubes. […]

| IC50 | Compound |
| --- | --- |
| 60 nM | O=P(O)(O)C(O)(CCNC1CCc2ccccc21)P(=O)(O)O (centres unmarked) |
| 440 nM | O=P(O)(O)C(O)(CCNC1C2CC3CC(C2)CC1C3)P(=O)(O)O (centres unmarked) |
| 600 nM | O=P(O)(O)C(O)(CCNC1CC2CCC1C2)P(=O)(O)O (centres unmarked) |
| 1460 nM | O=P(O)(O)C(O)(CCNCC1CCCCCC1)P(=O)(O)O |
| 130 nM | O=P(O)(O)C(O)(CCNC1CCCc2ccccc21)P(=O)(O)O (centres unmarked) |
| 2300 nM | O=P(O)(O)C(O)(CCNC1CCN(Cc2ccccc2)CC1)P(=O)(O)O |
| 370 nM | O=P(O)(O)C(O)(CCN1CCC(c2ccccc2)CC1)P(=O)(O)O |
| 19 nM | O=P(O)(O)C(O)(CCN1CCCC2CCCCC21)P(=O)(O)O (centres unmarked) |
| 720 nM | O=P(O)(O)C(O)(CCN1CCCCC1)P(=O)(O)O |
| 130 nM | O=P(O)(O)C(O)(CCN1CCCCCC1)P(=O)(O)O |
| 5060 nM | CC1(C)CC2CC(C)(CN2CCC(O)(P(=O)(O)O)P(=O)(O)O)C1 (centres unmarked) |
| 390 nM | O=P(O)(O)C(O)(CCN1CCC2(CCCCC2)CC1)P(=O)(O)O |

| Compound | IC50 |
| --- | --- |
| O=P(O)(O)C(O)(CCN1CC2CCC(CC2)C1)P(=O)(O)O | 16 nM |
